Tests used:
Assay type in all cases: cell-based, mouse
[1] = tested on: β-galactosidase in CMV-LacZ C2C12 myoblasts; test: CMV-LacZ secondary screen in C2C12 myoblasts (β-Gal stabilizing assay); details: for CMV-LACZ in Myoblasts (β-galactosidase activity relative to DMSO): CMV-LacZ C2C12 myoblasts; for CMV-LACZ in Myoblasts, value relative to DMSO: SU9516 analogs, C2C12 CMV-LacZ, N=2
In short: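 Dose-response runs at 0.5–40 μM (0.5, 1, 5, 10, 20, 40 μM; N=2 per point) used a clonal C2C12 line carrying CMV-LacZ. Cells were assayed as myoblasts or as differentiated myotubes, and β-galactosidase levels were read with the FDG fluorogenic substrate.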

[2] = tested on: α7 integrin (LacZ reporter in α7+/LacZ myotubes); test: Myotube α7 integrin FDG assay (Burkin assay in myotubes, 96-well); details: for Burkin Assay in Myotubes, value relative to DMSO: SU9516 analogs, 96-well, N=3-6
[3] = tested on: β-galactosidase in CMV-LacZ C2C12 myotubes; test: CMV-LacZ secondary screen in C2C12 myotubes (β-Gal stabilizing assay); details: for CMV-LACZ in Myotubes, signal relative to DMSO: C2C12 CMV-LacZ myotubes, fold relative to DMSO; for CMV-LACZ in Myotubes, value relative to DMSO: SU9516 analogs, C2C12 CMV-LacZ, N=2
In short: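 β-Gal level was the read-out, measured in a clonal C2C12 line expressing LacZ from a CMV promoter. Dose-response curves used six concentrations, 0.5 μM up to 40 μM, with duplicate points.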

[4] = tested on: α7 integrin (LacZ reporter in α7βgal+/− myoblasts); test: Myoblast α7+/LacZ integrin FDG assay (Burkin assay in myoblasts, 96-well); details: for Burkin Assay in Myoblasts, signal relative to DMSO: α7+/LacZ myoblasts; for Burkin Assay in Myoblasts, signal relative to DMSO / Burkin Assay in Myoblasts, value relative to DMSO: 96-well; for Burkin Assay in Myoblasts, value relative to DMSO: SU9516 analogs, N=3-6
[5] = Mus musculus, Myoblast, 48 h, read-out: Burkin Assay in Myoblasts, value relative to DMSO

## Cc1cccc(Sc2nc(-c3ccccc3)ccc2C#N)c1 [MLS000325736-01]
[1]; 0.5 uM
  CMV-LACZ in Myoblasts (β-galactosidase activity relative to DMSO): 0.7862
[1]; 1 uM
  CMV-LACZ in Myoblasts (β-galactosidase activity relative to DMSO): 0.9135
[1]; 5 uM
  CMV-LACZ in Myoblasts (β-galactosidase activity relative to DMSO): 0.9758
[1]; 10 uM
  CMV-LACZ in Myoblasts (β-galactosidase activity relative to DMSO): 1.0696
[1]; 20 uM
  CMV-LACZ in Myoblasts (β-galactosidase activity relative to DMSO): 1.0111
[1]; 40 uM
  CMV-LACZ in Myoblasts (β-galactosidase activity relative to DMSO): 1.0537
[2]; 0.5 uM
  Burkin Assay in Myotubes, α7 integrin LacZ reporter signal relative to DMSO: 0.9135
[2]; 1 uM
  Burkin Assay in Myotubes, α7 integrin LacZ reporter signal relative to DMSO: 0.8017
[2]; 5 uM
  Burkin Assay in Myotubes, α7 integrin LacZ reporter signal relative to DMSO: 1.027
[2]; 10 uM
  Burkin Assay in Myotubes, α7 integrin LacZ reporter signal relative to DMSO: 1.168
[2]; 20 uM
  Burkin Assay in Myotubes, α7 integrin LacZ reporter signal relative to DMSO: 0.6582
[2]; 40 uM
  Burkin Assay in Myotubes, α7 integrin LacZ reporter signal relative to DMSO: 0.6972
[3]; 0.5 uM
  CMV-LACZ in Myotubes, signal relative to DMSO: 0.9263
[3]; 1 uM
  CMV-LACZ in Myotubes, signal relative to DMSO: 0.8968
[3]; 5 uM
  CMV-LACZ in Myotubes, signal relative to DMSO: 0.9630
[3]; 10 uM
  CMV-LACZ in Myotubes, signal relative to DMSO: 0.9324
[3]; 20 uM
  CMV-LACZ in Myotubes, signal relative to DMSO: 0.8244
[3]; 40 uM
  CMV-LACZ in Myotubes, signal relative to DMSO: 0.9889
[4]; 0.5 uM
  Burkin Assay in Myoblasts, signal relative to DMSO: 0.7757
[4]; 1 uM
  Burkin Assay in Myoblasts, signal relative to DMSO: 0.7875
[4]; 5 uM
  Burkin Assay in Myoblasts, signal relative to DMSO: 1.423
[4]; 10 uM
  Burkin Assay in Myoblasts, signal relative to DMSO: 1.17
[4]; 20 uM
  Burkin Assay in Myoblasts, signal relative to DMSO: 0.912
[4]; 40 uM
  Burkin Assay in Myoblasts, signal relative to DMSO: 0.8854

## O=C1Nc2ccccc2/C1=C/c1c[nH]cn1 [MLS000327715-01]
[1]; 0.5 uM
  CMV-LACZ in Myoblasts, value relative to DMSO: 1.2294
[1]; 1 uM
  CMV-LACZ in Myoblasts, value relative to DMSO: 1.1731
[1]; 5 uM
  CMV-LACZ in Myoblasts, value relative to DMSO: 0.9664
[1]; 10 uM
  CMV-LACZ in Myoblasts, value relative to DMSO: 1.0060
[1]; 20 uM
  CMV-LACZ in Myoblasts, value relative to DMSO: 1.3181
[1]; 40 uM
  CMV-LACZ in Myoblasts, value relative to DMSO: 1.0648
[2]; 0.5 uM
  Burkin Assay in Myotubes, value relative to DMSO: 0.8838
[2]; 1 uM
  Burkin Assay in Myotubes, value relative to DMSO: 1.025
[2]; 5 uM
  Burkin Assay in Myotubes, value relative to DMSO: 1.302
[2]; 10 uM
  Burkin Assay in Myotubes, value relative to DMSO: 1.115
[2]; 20 uM
  Burkin Assay in Myotubes, value relative to DMSO: 1.192
[2]; 40 uM
  Burkin Assay in Myotubes, value relative to DMSO: 1.119
[3]; 0.5 uM
  CMV-LACZ in Myotubes, value relative to DMSO: 1.1762
[3]; 1 uM
  CMV-LACZ in Myotubes, value relative to DMSO: 1.0562
[3]; 5 uM
  CMV-LACZ in Myotubes, value relative to DMSO: 1.1289
[3]; 10 uM
  CMV-LACZ in Myotubes, value relative to DMSO: 0.9983
[3]; 20 uM
  CMV-LACZ in Myotubes, value relative to DMSO: 1.2200
[3]; 40 uM
  CMV-LACZ in Myotubes, value relative to DMSO: 1.4871
[4]; [5]
  fold induction at 0.5 µM: 1.38
  fold induction at 1 µM: 1.09
  fold induction at 5 µM: 1.15
  fold induction at 10 µM: 1.03
  fold induction at 20 µM: 0.902
  fold induction at 40 µM: 0.578

## Cc1ccc(/C=C2\C(=O)Nc3ccccc32)o1 [MLS000391588-01]
[1]; 0.5 uM
  CMV-LACZ in Myoblasts, value relative to DMSO: 1.0009
[1]; 1 uM
  CMV-LACZ in Myoblasts, value relative to DMSO: 0.7411
[1]; 5 uM
  CMV-LACZ in Myoblasts, value relative to DMSO: 0.9885
[1]; 10 uM
  CMV-LACZ in Myoblasts, value relative to DMSO: 1.0968
[1]; 20 uM
  CMV-LACZ in Myoblasts, value relative to DMSO: 1.4307
[1]; 40 uM
  CMV-LACZ in Myoblasts, value relative to DMSO: 1.1119
[2]; 0.5 uM
  Burkin Assay in Myotubes, value relative to DMSO: 1.073
[2]; 1 uM
  Burkin Assay in Myotubes, value relative to DMSO: 0.9563
[2]; 5 uM
  Burkin Assay in Myotubes, value relative to DMSO: 0.8994
[2]; 10 uM
  Burkin Assay in Myotubes, value relative to DMSO: 0.9356
[2]; 20 uM
  Burkin Assay in Myotubes, value relative to DMSO: 0.7631
[2]; 40 uM
  Burkin Assay in Myotubes, value relative to DMSO: 0.664
[3]; 0.5 uM
  CMV-LACZ in Myotubes, value relative to DMSO: 0.8400
[3]; 1 uM
  CMV-LACZ in Myotubes, value relative to DMSO: 1.0010
[3]; 5 uM
  CMV-LACZ in Myotubes, value relative to DMSO: 1.0019
[3]; 10 uM
  CMV-LACZ in Myotubes, value relative to DMSO: 0.9740
[3]; 20 uM
  CMV-LACZ in Myotubes, value relative to DMSO: 0.9212
[3]; 40 uM
  CMV-LACZ in Myotubes, value relative to DMSO: 0.9094
[4]; 0.5 uM
  Burkin Assay in Myoblasts, value relative to DMSO: 1.07
[4]; 1 uM
  Burkin Assay in Myoblasts, value relative to DMSO: 1.015
[4]; 5 uM
  Burkin Assay in Myoblasts, value relative to DMSO: 0.9119
[4]; 10 uM
  Burkin Assay in Myoblasts, value relative to DMSO: 0.8176
[4]; 20 uM
  Burkin Assay in Myoblasts, value relative to DMSO: 0.7804
[4]; 40 uM
  Burkin Assay in Myoblasts, value relative to DMSO: 0.3005

Source: patent US9980943B2, “Methods of treating muscular dystrophy” (BOARD OF REGENTS OF THE NEVADA SYSTEM OF HIGHER EDUCATION, …, priority 2013, dated 2018)
